{"source": "patent US20050075398A1", "about": "“Neuroprotectin D1 protects against cellular apoptosis, stroke damage, alzheimer's disease and retinal diseases” (priority 2003, published 2005)", "key": {"ARPE-19 cells [1]": {"test_system": "ARPE-19 cells", "assay": "A2E-induced apoptosis in ARPE-19 cells (Hoechst staining)", "assay_type": "cell-based, human", "conditions": "A2E up to 200 μM", "experimental": "To test the ability of NPD1 to inhibit A2E oxidative stress, ARPE-19 cells grown in 6-well plates were transfected by Fugene 6 with NF-κB promoter sequence linked to a luciferase reporter gene and with IκB-EGFP. Promoterless β-galactosidase was co-transfected in ARPE-19 cells to determine the transfection efficiency. Four hours after transfection, cells were washed and further incubated 8 to 10 h before adding inducers. Two different set of cells were used. One set of cells was serum-starved 5 h before the addition of A2E and TNF-α/H2O2, and further incubated for 20-24 h before harvesting. The other set of cells was not serum-starved or further incubated. Luciferase activity was measured. The IκB-EGFP probe was measured by fluorescence confocal microscopy, and Hoechst-positive cells were identified."}, "Bad": {"test_system": "Bad", "assay": "Western blot of Bad in ARPE-19 cells under TNFα/H2O2", "assay_type": "cell-based, human", "conditions": "50 nM; similar conditions (800 μM H2O2 with TNFα)", "experimental": "(§1) Analysis of pro- and anti-apoptotic proteins in ARPE-19 cells: Bcl-2 family proteins were analyzed by Western-blot analysis. In brief, 20-μg equivalents of each cell extract were subjected to electrophoresis on a 8-16% gel (Promega, Madison, Wis.) at 125 volts for 2 h. The proteins were transferred to nitrocellulose membrane at 30 volts for 1 h at 4° C. The membranes were subjected to treatment with primary antibodies of Bcl-2, Bcl-xL, Bax, and Bad for 1 h at room temperature, and probed 30 min with secondary antibody, goat anti-rabbit Ig:HRPO and HRP-conjugated anti-biotin antibody. (BD Sciences—Pharminogen, San Diego, Calif.) Then proteins were evaluated using an ECL kit. (Amersham Biosciences Corp., Piscataway, N.J.)\n(§2) Using the same TNFα/H2O2 concentrations, Bcl-2 proteins were assayed. Cells were grown for 72 h after plating, placed in serum-free medium for 1 h, then incubated with TNFα/H2O2 for 6 h. Protein expression and Western-blot analysis were performed as described in Example 13. Data in FIGS. 14A, 14B, 14C and 14D represent four independent experiments with triplicate samples in each case. Anti-apoptotic protein Bcl-xL was enhanced in ARPE-19 cells by TNFα/H2O2 (800 μM) (FIG. 14B, first bar), whereas Bcl-2 was not changed (FIG. 14A, first bar)."}, "ARPE-19 cells [2]": {"test_system": "ARPE-19 cells", "assay": "DNA fragmentation by differential sedimentation after 3H-thymidine labeling", "assay_type": "cell-based, human", "conditions": "50 nM; TNF-α 10 ng and H2O2 800 μM for 6-8 h", "experimental": "DNA fragmentation assay: Cells (80% confluent) growing in DMEM (10% FBS) in 6-well plates were labeled with 1 μCi ^3H-thymidine per well for 24 h at 37° C. The day-old medium was replaced to remove the unincorporated ^3H-thymidine. Cells were then serum-starved for 1 h and treated with TNFα plus H2O2 for 6-8 h. Cells were harvested, centrifuged at 200×g for 10 min at 4° C. An aliquot of the supernatant was precipitated with 25% TCA, and radioactivity was measured. This represents the amount of ^3H-thymidine released during the oxidative stress induced by TNFα plus H2O2 The cell pellet was solubilized in lysis buffer (0.2% Triton X-100 in 10 mM Tris/EDTA). The intact DNA and fragmented DNA were separated by centrifugation at 13,000×g for 10 min at 4° C. Fragmented DNA was precipitated from the supernatant with 25% TCA. The pellets were resuspended in 1% SDS and radioactivity was measured. This represents the intact DNA in the cells. The amount of DNA fragmentation is expressed as percentage of fragmented DNA over the control, as described in Kim, H. Y., Akbar, M., Lau, A. & Edsall, L. (2000) J. Biol. Chem. 275:35215-35223.\nThese observations indicate that oxidative stress triggered DNA fragmentation and RPE apoptosis, and that the increase in NPD1 inhibited RPE cell death. […] DNA fragmentation was evaluated after TCA precipitation and expressed as percentage over intact DNA. […]"}, "[3]": {"test_system": "polymorphonuclear leukocyte infiltration", "assay": "Zymosan-induced peritonitis, leukocyte infiltration", "assay_type": "in vivo, mouse", "conditions": "100 ng i.v. bolus 1.5 min before Zymosan A; lavage at 2 h", "experimental": "The inhibition of leukocyte infiltration in zymosan-induced peritonitis by 4,17S-diHDHA and 10,17S-docosatriene (NPD1) was tested. […] Peritonitis was induced in 6- to 8-week-old male FVB mice (Charles River Laboratories) by peritoneal injection of 1 mg Zymosan A. The compounds 4,17S- and 10,17S-diHDHA were injected by intravenous bolus injection, 1.5 minutes before Zymosan A treatment. Two hours after induction of peritonitis, rapid peritoneal lavages were collected, and cell type enumeration was performed."}, "COX-1 expression": {"test_system": "COX-1 expression", "assay": "COX-1 mRNA abundance in ipsilateral hippocampus after MCA-O", "assay_type": "in vivo, mouse", "conditions": "1 h MCA-O, 2 h reperfusion, NPD1 0.16 μg/ml infused", "experimental": "COX-2 RNA abundance in hippocampus and HN cells. Abundance of human-specific COX-1 and COX-2 RNA message was assayed using RT-PCR as described in Bazan, N. G., and Lukiw, W. J. (2002) J. Biol. Chem. 277, 30359-30367.\nTo determine COX-1 and COX-2 expression, mRNA abundance in the ipsilateral hippocampus was measured. […] A 3-fold increase of COX-2 was seen due to MCA-O reperfusion (FIG. 7C). The infusion of the precursor DHA as well as its product 10,17S-docosatriene (NPD1) inhibited COX-2 expression by 14% and 52%, respectively."}, "Bax": {"test_system": "Bax", "assay": "Western blot of Bax in ARPE-19 cells under TNFα/H2O2", "assay_type": "cell-based, human", "conditions": "50 nM; 800 μM H2O2 along with TNFα, 6 h", "experimental": "as §1, §2"}, "CEX-1 gene expression": {"test_system": "CEX-1 gene expression", "assay": "HGU133 GeneChip DNA array in HN cells: CEX-1", "assay_type": "cell-based, human", "conditions": "Aβ42 25 μM, DHA 50 nM or NPD1 50 nM, 18 h, nsc = no significant change"}}}
{"molecule": "CC/C=C\\C[C@H](O)\\C=C/C=C/C=C/[C@H](O)C/C=C\\C/C=C\\CCC(=O)O", "note": "[NPD1, 10,17S-docosatriene]", "values": [{"measurement": "effect on A2E-induced apoptosis", "setting": "ARPE-19 cells [1]", "result": "inhibited"}, {"measurement": "decrease of oxidative stress-increased Bad", "setting": "Bad", "result": 52, "unit": "%"}, {"measurement": "effect on DNA fragmentation (3H-thymidine)", "setting": "ARPE-19 cells [2]", "result": "inhibited"}, {"measurement": "inhibition of leukocyte infiltration", "setting": "[3]", "result": "potent inhibition"}, {"measurement": "decrease of COX-1 expression (mRNA)", "setting": "COX-1 expression", "result": 19, "unit": "%"}, {"measurement": "decrease of the up regulation of Bax", "setting": "Bax", "result": 65, "unit": "%"}, {"measurement": "CEX-1 gene expression, fold change over untreated controls", "setting": "CEX-1 gene expression", "result": "nsc"}]}
